ChEMBL document CHEMBL6087402, “Design, synthesis, and in vitro and in vivo biological evaluation of dihydroartemisinin derivatives as potent anti-cancer agents with ferroptosis-inducing and apoptosis-activating properties” (Eur J Med Chem, 2025)
Activity calls are given as the source filed them. The rule behind the calls is not given here.

Key:
HCT-116 [1] = assay: Anti-proliferative activity against human HCT-116 cells incubated for 72 hrs by MTT assay; format: functional, cell-based; conditions: HCT-116, 72 h
SW-620 = assay: Anti-proliferative activity against human SW620 cells incubated for 72 hrs by MTT assay; format: functional, cell-based; conditions: SW-620, 72 h
[2] = Selectivity index, ratio of IC50 for human L02 cells to IC50 for human Bel-7402 cells; format: toxicity; conditions: L02 cells versus Bel-7402 cells, read-out: Ratio IC50
[3] = Selectivity index, ratio of IC50 for human L02 cells to IC50 for human SW620 cells; format: toxicity; conditions: L02 cells versus SW620 cells, read-out: Ratio IC50
HCT-116 [4] = assay: Inhibition of cell proliferation in human HCT-116 cells incubated for 12 hrs by EdU assay; format: functional, cell-based; conditions: dose <= 3.0 µM
HCT-116 [5] = assay: Anti-proliferative activity against human HCT-116 cells assessed as reduction in total STAT3 level upto 3 uM incubated for 72 hrs by Western blot analysis; format: functional, cell-based
HCT-116 [6] = assay: Induction of ferroptosis in human HCT-116 cells incubated for 72 hrs in presence of DFO by MTT assay; format: functional, cell-based
HCT-116 [7] = assay: Depletion of GSH in human HCT-116 cells assessed as reduction in GSH/GSSG ratio upto 3 uM incubated for 24 hrs; format: functional, cell-based
HCT-116 [8] = assay: Induction of oxidative stress in human HCT-116 cells assessed as increase in MDA level incubated for 24 hrs; format: functional, cell-based; conditions: dose <= 3.0 µM
HCT-116 [9] = assay: Induction of lipid peroxidation in human HCT-116 cells upto 3 uM incubated for 24 hrs by confocal fluorescence microscopy; format: functional, cell-based
HCT-116 [10] = assay: Induction of apoptosis in human HCT-116 cells assessed as viable cells at 0.03 uM incubated for 72 hrs by Annexin V-FITC/PI staining based flow cytometry (reference value: 97.1 %); format: functional; conditions: read-out: Activity
HCT-116 [11] = assay: Induction of apoptosis in human HCT-116 cells assessed as early apoptotic cells at 0.03 uM incubated for 72 hrs by Annexin V-FITC/PI staining based flow cytometry (reference value: 1.55 %); format: functional
HCT-116 [12] = assay: Induction of apoptosis in human HCT-116 cells assessed as necrotic cells at 0.03 uM incubated for 72 hrs by Annexin V-FITC/PI staining based flow cytometry (reference value: 0.33 %); format: functional
HCT-116 [13] = assay: Induction of apoptosis in human HCT-116 cells assessed as viable cells at 3 uM incubated for 72 hrs by Annexin V-FITC/PI staining based flow cytometry (reference value: 97.1 %); format: functional; conditions: read-out: Activity
HCT-116 [14] = assay: Induction of apoptosis in human HCT-116 cells assessed as late apoptotic cells at 3 uM incubated for 72 hrs by Annexin V-FITC/PI staining based flow cytometry (reference value: 0.98 %); format: functional
HCT-116 [15] = assay: Induction of mitochondrial membrane potential loss in human HCT-116 cells assessed as increase in green fluorescence incubated upto 3 uM by JC-1 dye based analysis; format: functional, cell-based
HCT-116 [16] = assay: Induction of apoptosis in human HCT-116 cells assessed as increase in Bax level upto 3 uM incubated for 72 hrs by Western blot analysis; format: functional, cell-based
HCT-116 [17] = assay: Induction of apoptosis in human HCT-116 cells assessed as decrease in Bcl-2 level upto 3 uM incubated for 72 hrs by Western blot analysis; format: functional, cell-based
HCT-116 [18] = assay: Induction of apoptosis in human HCT-116 cells assessed as increase in JNK level upto 3 uM incubated for 72 hrs by Western blot analysis; format: functional, cell-based
HCT-116 [19] = assay: Induction of cell cycle arrest in human HCT-116 cells assessed as accumulation at G0/G1 phase at 0.03 uM incubated for 72 hrs by PI staining based flow cytometry (reference value: 80.71 %); format: functional
HCT-116 [20] = assay: Induction of cell cycle arrest in human HCT-116 cells assessed as accumulation at G0/G1 phase at 0.3 uM incubated for 72 hrs by PI staining based flow cytometry (reference value: 80.71 %); format: functional
HCT-116 [21] = assay: Induction of cell cycle arrest in human HCT-116 cells assessed as accumulation at G0/G1 phase at 3 uM incubated for 72 hrs by PI staining based flow cytometry (reference value: 80.71 %); format: functional
HCT-116 [22] = assay: Induction of cell cycle arrest in human HCT-116 cells assessed as accumulation at S phase at 0.03 uM incubated for 72 hrs by PI staining based flow cytometry (reference value: 23.49 %); format: functional
HCT-116 [23] = assay: Induction of cell cycle arrest in human HCT-116 cells assessed as accumulation at S phase at 3 uM incubated for 72 hrs by PI staining based flow cytometry (reference value: 23.49 %); format: functional
HCT-116 [24] = assay: Induction of cell cycle arrest in human HCT-116 cells assessed as accumulation at G2/M phase at 0.03 uM incubated for 72 hrs by PI staining based flow cytometry (reference value: 15.79 %); format: functional
HCT-116 [25] = assay: Induction of cell cycle arrest in human HCT-116 cells assessed as accumulation at G2/M phase at 0.3 uM incubated for 72 hrs by PI staining based flow cytometry (reference value: 15.79 %); format: functional
HCT-116 [26] = assay: Induction of cell cycle arrest in human HCT-116 cells assessed as accumulation at G2/M phase at 3 uM incubated for 72 hrs by PI staining based flow cytometry (reference value: 15.79 %); format: functional
HCT-116 [27] = assay: Induction of cell cycle arrest in human HCT-116 cells at G2/M phase assessed as increase in p53 level incubated for 72 hrs by Western blot analysis; format: functional, cell-based; conditions: dose <= 3.0 µM
[28] = Toxicity in BALB/c mouse assessed as loss of appetite at 100 mg/kg, ip administered continuously for 7 days; format: organism-based; conditions: in vivo, 168 h, time 7 day
[29] = Toxicity in BALB/c mouse assessed as diarrhea at 100 mg/kg, ip administered continuously for 7 days; format: organism-based; conditions: in vivo, 168 h, time 7 day
[30] = Toxicity in BALB/c mouse assessed as difficulty in breathing at 100 mg/kg, ip administered continuously for 7 days; format: organism-based; conditions: in vivo, 168 h, time 7 day
[31] = Toxicity in BALB/c mouse assessed as animal death at 100 mg/kg, ip administered continuously for 7 days; format: organism-based; conditions: in vivo, 168 h, time 7 day
[32] = Toxicity in BALB/c mouse assessed as change fur luster at 100 mg/kg, ip administered continuously for 7 days; format: organism-based; conditions: in vivo, 168 h, time 7 day
[33] = Toxicity in BALB/c mouse assessed as apparent damage in liver at 100 mg/kg, ip administered continuously for 7 days by H and E staining based analysis; format: organism-based; conditions: in vivo, 168 h, time 7 day
[34] = Toxicity in BALB/c mouse assessed as toxic effect upto 100 mg/kg, ip administered continuously for 7 days; format: organism-based; conditions: in vivo, 168 h, time 7 day
[35] = Toxicity in BALB/c mouse assessed as lethal dose administered intraperitoneally continuously for 7 days; conditions: in vivo, route ip, time 7 day
HCT-116 [36] = assay: Antitumor activity against human HCT-116 cells xenografted in mouse at 50 mg/kg, ip administered once in every 2 days for 21 days relative to control; format: functional; conditions: HCT-116, 504 h, time 21 day, read-out: TGI
HCT-116 [37] = assay: Antitumor activity against human HCT-116 cells xenografted in mouse assessed as reduction in cellular atypia at 50 mg/kg, ip administered once in every 2 days for 21 days by H and E staining based analysis; format: functional, organism-based; conditions: time 21.0 day

Structure (SMILES): C[C@@H]1CC[C@H]2[C@@H](C)C(OC(=O)Nc3ccc(Cl)cc3)O[C@@H]3O[C@@]4(C)CC[C@H]1[C@]32OO4 (stereo partly drawn)
- IC50 (HCT-116 [1]): 310 nM
- IC50 (SW-620): 600 nM
- selectivity ratio [2]: 2
- selectivity ratio [3]: 28
- inhibition (HCT-116 [4]): Dose-dependent-effect
- Activity (HCT-116 [5]): Active
- Activity (HCT-116 [6]): inactive
- Activity (HCT-116 [7]): Active
- Activity (HCT-116 [8]): Dose-dependent-effect
- Activity (HCT-116 [9]): Active
- viability at 0.03 µM (HCT-116 [10]): 93.3%
- Activity (HCT-116 [11]): 4.11%
- Activity (HCT-116 [12]): 0.22%
- viability at 3 µM (HCT-116 [13]): 56.7%
- Activity (HCT-116 [14]): 26.2%
- Activity (HCT-116 [15]): Active
- Activity (HCT-116 [16]): Active
- Activity (HCT-116 [17]): Active
- Activity (HCT-116 [18]): Active
- Activity (HCT-116 [19]): 49.21%
- Activity (HCT-116 [20]): 37.62%
- Activity (HCT-116 [21]): 42.97%
- Activity (HCT-116 [22]): 25.54%
- Activity (HCT-116 [23]): 23.71%
- Activity (HCT-116 [24]): 25.25%
- Activity (HCT-116 [25]): 37.8%
- Activity (HCT-116 [26]): 33.23%
- Activity (HCT-116 [27]): Dose-dependent-effect
- Activity [28]: Non-toxic
- Activity [29]: Non-toxic
- Activity [30]: Non-toxic
- Activity [31]: Non-toxic
- Activity [32]: Non-toxic
- Activity [33]: Non-toxic
- Activity [34]: Non-toxic
- LD50 at 168 h [35]: > 100 mg/kg
- inhibition in vivo at 50 mg/kg (HCT-116 [36]): ≤ 58.7%
- Activity (HCT-116 [37]): Active
